Measurements reported in US20220411495A1, “POSITIVE ALLOSTERIC MODULATORS OF THE CALCIUM-SENSING RECEPTOR” (VIB VZW, priority 2019, published 2022).
Residue numbers refer to the chain shown, from its start.

T1: CaSR 7-transmembrane domain allosteric binding site (Homo sapiens, UniProt P41180)
T1 sequence (P41180 20-1078): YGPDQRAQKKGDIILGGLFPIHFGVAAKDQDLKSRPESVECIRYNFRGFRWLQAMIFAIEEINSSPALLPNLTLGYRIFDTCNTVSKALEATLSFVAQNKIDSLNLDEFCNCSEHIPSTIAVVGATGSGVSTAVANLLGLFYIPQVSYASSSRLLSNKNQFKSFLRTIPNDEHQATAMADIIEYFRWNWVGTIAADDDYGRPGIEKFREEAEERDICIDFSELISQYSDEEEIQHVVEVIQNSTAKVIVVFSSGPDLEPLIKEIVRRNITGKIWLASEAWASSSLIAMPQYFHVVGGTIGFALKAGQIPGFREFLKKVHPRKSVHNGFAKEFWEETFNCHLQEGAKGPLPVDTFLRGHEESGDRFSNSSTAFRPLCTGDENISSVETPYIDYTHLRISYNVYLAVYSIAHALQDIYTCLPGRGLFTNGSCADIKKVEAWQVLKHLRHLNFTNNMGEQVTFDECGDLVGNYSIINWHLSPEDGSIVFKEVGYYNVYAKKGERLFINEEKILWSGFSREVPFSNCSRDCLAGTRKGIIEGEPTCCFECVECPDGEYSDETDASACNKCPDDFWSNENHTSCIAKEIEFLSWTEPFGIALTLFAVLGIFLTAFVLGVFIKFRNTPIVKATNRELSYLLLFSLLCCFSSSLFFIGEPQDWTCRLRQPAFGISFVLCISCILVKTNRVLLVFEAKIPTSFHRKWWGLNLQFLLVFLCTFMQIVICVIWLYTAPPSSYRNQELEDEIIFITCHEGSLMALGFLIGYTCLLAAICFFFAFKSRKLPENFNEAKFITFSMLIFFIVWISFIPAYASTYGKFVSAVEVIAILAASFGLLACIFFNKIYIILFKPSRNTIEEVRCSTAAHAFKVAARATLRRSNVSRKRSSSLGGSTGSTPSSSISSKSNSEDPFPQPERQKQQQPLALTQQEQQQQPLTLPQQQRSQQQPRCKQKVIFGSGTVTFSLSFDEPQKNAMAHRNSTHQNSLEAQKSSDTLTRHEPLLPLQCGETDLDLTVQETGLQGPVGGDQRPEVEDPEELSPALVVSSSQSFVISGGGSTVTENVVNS

T2: loss-of-function mutant CaSR Q459R (Homo sapiens, UniProt P41180, Q459R)
T2 construct: expressed in transfected cells
T2 sequence (P41180 20-1078 Q459R): T1 sequence (P41180 20-1078) with Q440R

B1: Nb4: llama-derived CaSR-specific nanobody acting as PAM, SEQ ID NO:5 (protein)
VHH: QVQLVESGGGLVQAGGSLRLSCAASGRTFSTYRMGWFRQGLGKEREFVAAITANGVRTFYTDSVKGRFTISRDNAKNTLYLQMNSLQPDDTAVYLCAARRKGIFTVQQAQDITDWDYWGQGTQVTVSS
modifications: CaSR Nb4

Key:
[1] = clinical development; cited from earlier work
[2] = biological target: T1, CaSR 7-transmembrane domain allosteric binding site; test: [3H]evocalcet radioligand displacement
Procedure: For the seven different nanobodies with potencies in the 10 to 600 nM range, further characterization of their recognition site on the CaSR antigen was performed, since the identification of the nanobody binding-sites at the CaSR is key to understand their interaction and mode-of-action at a molecular and structural level, and will further aid in the development of second-generation nanobodies with enhanced pharmacological parameters. Nanobodies belonging to each family of the five different nanobody families are expected to interact with distinct regions of the CaSR.

[3] = biological target: T2, loss-of-function mutant CaSR Q459R; test: IP1 accumulation assay, Ca2+ concentration-response curve of CaSR Q459R; assay type: cell-based; settings: preliminary experiment; for Concentration at which the PAM effect is initiated: Ca2+ concentration-response curve; for Effect on potency for Ca2+ in CaSR Q459R: increasing PAM concentrations
Procedure: In comparison with loss-of-function mutant S170A, Q459R is a naturally occurring loss-of-function mutant that has previously been associated with familial hypocalciuric hypercalcemia (FHH). The effect of increasing concentrations of CaSR Nb4 or the clinically used PAM cinacalcet on the Ca^2+ concentration-response curve were measured with the IP1 accumulation assay. […] The PAM effect of CaSR Nb4 (0.04 μM) is initiated at a much lower concentration than for cinacalcet (5 μM).
Inositol monophosphate (IP1) accumulation was measured using the commercially available HTRF® IP1 accumulation kit (Cisbio Bioassays, Codolet, France) and an EnVision multimode plate reader (PerkinElmer, Waltham, Mass., USA). Unless stated otherwise, the cells were washed once with 100 μL/well assay buffer and stimulated for 30 minutes at 37° C. with 50 μL/well ligand(s) diluted in assay buffer supplemented with 20 mM LiCl. Following stimulation, the cells were washed once with 100 μL/well and lysed for 30 minutes at room temperature with 30 μL/well lysis buffer provided with the kit. The lysed cells were diluted 1:2 with assay buffer after which 10 μL/well was pipetted to a white 384-well OptiPlate (PerkinElmer, Waltham, Mass., USA). Next, 10 μL of a detection solution consisting of 2.5% IP1-d2 conjugate and 2.5% anti-IP1 antibody diluted in assay buffer was added to each well. Fluorophore emissions were measured after the plate was stored in the dark for 1 h. The 615/665 nm emission ratios measured upon excitation at 340 nm were converted to IP1 concentrations with an IP1 standard curve according to the manufacturer's instructions.

Molecule	Oral bioavailability [1] [%]	Displacement of [3H]evocalcet binding [2]	Concentration at which the PAM effect is initiated [3] [µM]	Effect on potency for Ca2+ in CaSR Q459R [3]
COc1cccc([C@@H](C)NCCCc2ccccc2Cl)c1 [NPS R-568, reference compound]	< 5			
C[C@@H](NCCCc1cccc(C(F)(F)F)c1)c1cccc2ccccc12 [cinacalcet, reference compound]		did displace	5	able to increase the potency for Ca^2+
B1		do not displace	0.04	able to increase the potency for Ca^2+
